Test results as given in patent publication US12091425B2 (AMGEN INC., priority 2016, dated 2024).

target: T1, Mcl-1/Bim interaction, recombinant human Mcl-1 (171-327) (Homo sapiens, UniProt Q07820); assay: Cell free Mcl-1: Bim Affinity Assay (Mcl-1 HTRF); type: binding; conditions: TR-FRET, 0.1 nM Mcl-1 (171-327), 0.05 nM biotin-Bim (51-76)
T1 construct: made in house
Summary of the method: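 TR-FRET competition assay with biotinylated human Bim peptide (residues 51-76); reaction plates incubated overnight before reading. IC50 values came from duplicate data fitted to a four-parameter sigmoidal competition curve.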

T1 sequence (Q07820 171-327): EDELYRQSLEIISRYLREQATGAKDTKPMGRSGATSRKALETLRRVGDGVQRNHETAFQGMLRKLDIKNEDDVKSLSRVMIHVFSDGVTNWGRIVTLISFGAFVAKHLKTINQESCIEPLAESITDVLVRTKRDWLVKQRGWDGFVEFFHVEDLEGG

IC50 [nM]	Molecule
2.54	CC[C@@H]1CC/C=C/[C@@H](OC)[C@@H]2CC[C@H]2CN2C[C@@]3(CCCc4cc(Cl)ccc43)COc3ccc(cc32)C(=O)NS1(=O)=O [Example 1093, (1S,3′R,6′R,7′R,8′E,12′R)-6-chloro-7′-methoxy-12′-ethyl-3,4-dihydro-2H,15′H-spiro [naphthalene-1,22′-[20]oxa[13]thia[1,14]diazatetracyclo[14.7.2.0^3,6.0^19,24]pentacosa [8,16,18,24]tetraen]-15′-one 13′,13′-dioxide]
2.56	COC[C@H]1CC/C=C/[C@H](O)[C@@H]2CC[C@H]2CN2C[C@@]3(CCCc4cc(Cl)ccc43)COc3ccc(cc32)C(=O)NS1(=O)=O [Example 435, (1S,3′R,6′R,7′S,8′E,12′R)-6-chloro-7′-hydroxy-12′-(methoxymethyl)-3,4-dihydro-2H,15′H-spiro[naphthalene-1,22′-[20]oxa[13]thia[1,14]diazatetracyclo[14.7.2.0^3,6.0^19,24]pentacosa [8,16,18,24]tetraen]-15′-one 13′,13′-dioxide]
3.69	CO[C@@H]1/C=C/CCCS(=O)(=O)NC(=O)c2ccc3c(c2)N(C[C@@H]2CC[C@H]21)C[C@@]1(CCCc2cc(Cl)ccc21)CO3 [Example 1091, (1S,3′R,6′R,7′R,8′E)-6-chloro-7′-methoxy-3,4-dihydro-2H,15′H-spiro [naphthalene-1,22′-[20]oxa[13]thia[1,14]diazatetracyclo[14.7.2.0^3,6.0^19,24]pentacosa [8,16,18,24]tetraen]-15′-one 13′,13′-dioxide]
1.01	CC[C@@H]1CC/C=C\[C@H](OCC(=O)NC)[C@@H]2CC[C@H]2CN2C[C@@]3(CCCc4cc(Cl)ccc43)COc3ccc(cc32)C(=O)NS1(=O)=O [Example 964, 2-(((1S,3′R,6′R,7′S,8′Z,12′R)-6-chloro-12′-ethyl-13′,13′-dioxido-15′-oxo-3,4-dihydro-2H-spiro[naphthalene-1,22′-[20]oxa[13]thia[1,14]diazatetracyclo[14.7.2.0^3,6.0^19,24]pentacosa [8,16,18,24]tetraen]-7′-yl)oxy)-N-methylacetamide]
0.442	CNC(=O)CO[C@H]1/C=C/CC[C@@H](C)S(=O)(=O)NC(=O)c2ccc3c(c2)N(C[C@@H]2CC[C@H]21)C[C@@]1(CCCc2cc(Cl)ccc21)CO3 [Example 404, 2-(((1S,3′R,6′R,7′S,8′E,12′R)-6-chloro-12′-methyl-13′,13′-dioxido-15′-oxo-3,4-dihydro-2H-spiro[naphthalene-1,22′-[20]oxa[13]thia[1,14]diazatetracyclo[14.7.2.0^3,6.0^19,24]pentacosa [8,16,18,24]tetraen]-7′-yl)oxy)-N-methylacetamide]
2.45	O=C1NS(=O)(=O)[C@H]2C[C@@H](/C=C/[C@H](O)[C@@H]3CC[C@H]3CN3C[C@@]4(CCCc5cc(Cl)ccc54)COc4ccc1cc43)C2 [Example 100, (1S,3′R,6′R,7′S,8′E,10′S,12′R)-6-chloro-7′-hydroxy-3,4-dihydro-2H,15′H-spiro[naphthalene-1,22′-[20]oxa[13]thia[1,14]diazapentacyclo[14.7.2.1^10,12.0^3,6.0^19,24]hexacosa[8,16,18,24]tetraen]-15′-one 13′,13′-dioxide]
13.6	O=C1NS(=O)(=O)CCCCCC[C@@H]2CC[C@H]2CN2C[C@@]3(CCCc4cc(Cl)ccc43)COc3ccc1cc32 [Example 1084, (1S,3′R,6′R)-6-chloro-3,4-dihydro-2H,15′H-spiro[naphthalene-1,22′-[20]oxa[13]thia[1,14]diazatetracyclo[14.7.2.0^3,6.0^19,24]pentacosa[16,18,24]trien]-15′-one 13′,13′-dioxide]

Molecule	IC50 [nM]
C[C@@H]1CC/C=C/[C@H](O)[C@]2(C)CC[C@H]2CN2C[C@@]3(CCCc4cc(Cl)ccc43)COc3ccc(cc32)C(=O)NS1(=O)=O (single isomer, unassigned) [Example 118]	34.9

same assay, conditions: cell free Mcl-1:Bim TR-FRET, recombinant human Mcl-1 (171-327)

Molecule	IC50 [nM]
O=C1NS(=O)(=O)C[C@H](CO)/C=C/C[C@H](O)[C@@H]2CC[C@H]2CN2C[C@@]3(CCCc4cc(Cl)ccc43)COc3ccc1cc32 (single isomer, unassigned) [Example 706]	4.51
O=C1NS(=O)(=O)C[C@@H](CO)/C=C/C[C@H](O)[C@@H]2CC[C@H]2CN2C[C@@]3(CCCc4cc(Cl)ccc43)COc3ccc1cc32 (single isomer, unassigned) [Example 707]	2.25
O=C1NS(=O)(=O)[C@@H](CO)CCCC[C@H](O)[C@@H]2CC[C@H]2CN2C[C@@]3(CCCc4cc(Cl)ccc43)COc3ccc1cc32 (single isomer, unassigned) [Example 713]	1.71
(3R,6R,7R,11E,22S)-6′-chloro-7-hydroxy-3′,4′-dihydro-2′H,15H-spiro[9,20-dioxa-13-thia-1,14-diazatetracyclo[14.7.2.0^3,6.0^19,24]pentacosa-11,16,18,24-tetraene-22,1′-naphthalen]-15-one 13,13-dioxide or (3R,6R,7S,11E,22S)-6′-chloro-7-hydroxy-3′,4′-dihydro-2′H,15H-spiro[9,20-dioxa-13-thia-1,14-diazatetracyclo[14.7.2.0^3,6.0^19,24]pentacosa-11,16,18,24-tetraene-22,1′-naphthalen]-15-one 13,13-dioxide [Example 863]	5.38
C[C@H](O)C[C@H]1CC/C=C/[C@H](O)[C@@H]2CC[C@H]2CN2C[C@@]3(CCCc4cc(Cl)ccc43)COc3ccc(cc32)C(=O)NS1(=O)=O (single isomer, unassigned) [Example 551]	3.43
COc1ccc(C)c(NC(=O)C[C@@H]2CC/C=C/[C@H](O)[C@@H]3CC[C@H]3CN3C[C@@]4(CCCc5cc(Cl)ccc54)COc4ccc(cc43)C(=O)NS2(=O)=O)c1 (single isomer, unassigned) [Example 629]	2.3
C[C@H]1C/C=C/[C@H](O)[C@@H]2CC[C@H]2CN2C[C@@]3(CCCc4cc(Cl)ccc43)COc3ccc(cc32)C(=O)NS1(=O)=O (single isomer, unassigned) [Example 759]	3.98
O=C1NS(=O)(=O)CCC/C=C/C[C@@H]2CC[C@H]2CN2C[C@@]3(CCCc4cc(Cl)ccc43)COc3ccc1cc32 (single isomer, unassigned) [Example 495]	2.48
CC(C)(O)[C@@H]1CC/C=C/[C@H](O)[C@@H]2CC[C@H]2CN2C[C@@]3(CCCc4cc(Cl)ccc43)COc3ccc(cc32)C(=O)NS1(=O)=O (single isomer, unassigned) [Example 697]	0.746
O=C1NS(=O)(=O)CC/C=C\C[C@H](O)[C@@H]2CC[C@H]2CN2C[C@@]3(CCCc4ccccc43)COc3ccc1cc32 [Example 807, (1S,3′R,6′R,7′S,9′Z)-7′-hydroxy-3,4-dihydro-2H,15′H-spiro[naphthalene-1,22′-[20]oxa[13]thia [1,14]diazatetracyclo[14.7.2.0^3,6.0^19,24]pentacosa[9,16,18,24]tetraen]-15′-one 13′,13′-dioxide]	42.3
O=C1NS(=O)(=O)CCC/C=C/C[C@H](O)[C@@H]2CC[C@H]2CN2C[C@@]3(CCCc4cc(Cl)ccc43)COc3ccc1cc32 (single isomer, unassigned) [Example 833, (1S,3′R,6′R,7′S,9′E)-6-chloro-7′-hydroxy-3,4-dihydro-2H,16′H-spiro[naphthalene-1,23′-[21]oxa[14]thia[1,15]diazatetracyclo[15.7.2.0^3,6.0^20,25]hexacosa[9,17,19,25]tetraen]-16′-one 14′,14′-dioxide or (1S,3′R,6′R,7′S,9′Z)-6-chloro-7′-hydroxy-3,4-dihydro-2H,16′H-spiro[naphthalene-1,23′-[21]oxa[14]thia[1,15]diazatetracyclo[15.7.2.0^3,6.0^20,25]hexacosa [9,17,19,25]tetraen]-16′-one 14′,14′-dioxide]	5.12
O=C1NS(=O)(=O)CCOC/C=C/[C@@H]2CC[C@H]2CN2C[C@@]3(CCc4cc(Cl)ccc43)COc3ccc1cc32 [Example 817, (3R,6S,7E,22S)-5′-chloro-2′,3′-dihydro-15H-spiro[10,20-dioxa-13-thia-1,14-diazatetracyclo[14.7.2.0^3,6.0^19,24]pentacosa-7,16,18,24-tetraene-22,1′-inden]-15-one 13,13-dioxide]	29.3
O=C1NS(=O)(=O)CC/C=C/C[C@@H](O)[C@@H]2CC[C@H]2CN2C[C@@]3(CCCc4cc(Cl)ccc43)COc3ccc1cc32 (single isomer, unassigned) [Example 844]	11.1
COC1C=CCCC(C(C)(C)O)S(=O)(=O)NC(=O)c2ccc3c(c2)N(CC2CCC21)CC1(CCCc2cc(Cl)ccc21)CO3 (single isomer, unassigned) [Example 682]	1.78
O=C1NS(=O)(=O)CCOCCC[C@@H]2CC[C@H]2CN2C[C@@]3(CCCc4cc(Cl)ccc43)COc3ccc1cc32 (single isomer, unassigned) [Example 815]	1.26
O=C1NS(=O)(=O)C/C=C/C[C@@H](O)C[C@@H]2CC[C@H]2CN2C[C@@]3(CCCc4cc(Cl)ccc43)COc3ccc1cc32 (single isomer, unassigned) [Example 912]	7.78
O=C1NS(=O)(=O)C[C@H](CO)CCC[C@H](O)[C@@H]2CC[C@H]2CN2C[C@@]3(CCCc4cc(Cl)ccc43)COc3ccc1cc32 (single isomer, unassigned) [Example 708]	1.12
CN[C@H]1CCCCCS(=O)(=O)NC(=O)c2ccc3c(c2)N(C[C@@H]2CC[C@H]21)C[C@@]1(CCCc2cc(Cl)ccc21)CO3 (single isomer, unassigned) [Example 927, (1S,3′R,6′R,7′S)-6-chloro-7′-(methylamino)-3,4-dihydro-2H,15′H-spiro[naphthalene-1,22′-[20]oxa[13]thia[1,14]diazatetracyclo[14.7.2.0^3,6.0^19,24]pentacosa [16,18,24]trien]-15′-one 13′,13′-dioxide or (1S,3′R,6′R,7′R)-6-chloro-7′-(methylamino)-3,4-dihydro-2H,15′H-spiro[naphthalene-1,22′-[20]oxa[13]thia[1,14]diazatetracyclo[14.7.2.0^3,6.0^19,24]pentacosa [16,18,24]trien]-15′-one 13′,13′-dioxide]	46.2
